US20250213555A1, “SUBSTITUTED TETRAHYDROFURAN ANALOGS AS MODULATORS OF SODIUM CHANNELS” (VERTEX PHARMACEUTICALS INCORPORATED, priority 2021, published 2025)
pIC50: −log10 of the molar value.

Target: human Nav 1.8 (Homo sapiens, UniProt Q9Y5Y9)
Experiment: E-VIPR assay detecting and measuring Nav inhibition properties
Type: cell-based
Conditions: HEK cells expressing a truncated form of human Nav 1.8; compound numbers without "*" (not marked as run in the presence of human serum); read-out: measured IC50 value in the E-VIPR Assay
Method in brief: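 Nav inhibition was read by E-VIPR: cells were electrically stimulated while coumarin/oxonol FRET emissions were recorded. Cells were HEK expressing a truncated human Nav 1.8 and co-transduced with KIR2.1, and were assayed in 25% final human serum.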

Sequence of human Nav 1.8 (Q9Y5Y9 126-399 limits assumed): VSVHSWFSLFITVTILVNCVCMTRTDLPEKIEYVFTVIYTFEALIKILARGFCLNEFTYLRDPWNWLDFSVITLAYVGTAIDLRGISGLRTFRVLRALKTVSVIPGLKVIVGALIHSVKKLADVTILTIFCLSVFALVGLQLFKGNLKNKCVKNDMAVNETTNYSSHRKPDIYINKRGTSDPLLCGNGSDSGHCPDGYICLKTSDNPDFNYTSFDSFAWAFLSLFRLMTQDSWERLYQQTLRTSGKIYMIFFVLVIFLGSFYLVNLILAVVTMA
Sequence of human Nav 1.8 (Q9Y5Y9 660-890 limits assumed): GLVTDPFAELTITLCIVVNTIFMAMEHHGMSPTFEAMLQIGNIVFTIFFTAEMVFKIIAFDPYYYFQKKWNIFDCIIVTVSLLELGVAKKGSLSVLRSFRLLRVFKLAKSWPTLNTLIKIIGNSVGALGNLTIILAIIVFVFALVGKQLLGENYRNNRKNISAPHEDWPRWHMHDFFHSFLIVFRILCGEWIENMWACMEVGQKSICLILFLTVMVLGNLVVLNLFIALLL
Sequence of human Nav 1.8 (Q9Y5Y9 1148-1722 limits assumed): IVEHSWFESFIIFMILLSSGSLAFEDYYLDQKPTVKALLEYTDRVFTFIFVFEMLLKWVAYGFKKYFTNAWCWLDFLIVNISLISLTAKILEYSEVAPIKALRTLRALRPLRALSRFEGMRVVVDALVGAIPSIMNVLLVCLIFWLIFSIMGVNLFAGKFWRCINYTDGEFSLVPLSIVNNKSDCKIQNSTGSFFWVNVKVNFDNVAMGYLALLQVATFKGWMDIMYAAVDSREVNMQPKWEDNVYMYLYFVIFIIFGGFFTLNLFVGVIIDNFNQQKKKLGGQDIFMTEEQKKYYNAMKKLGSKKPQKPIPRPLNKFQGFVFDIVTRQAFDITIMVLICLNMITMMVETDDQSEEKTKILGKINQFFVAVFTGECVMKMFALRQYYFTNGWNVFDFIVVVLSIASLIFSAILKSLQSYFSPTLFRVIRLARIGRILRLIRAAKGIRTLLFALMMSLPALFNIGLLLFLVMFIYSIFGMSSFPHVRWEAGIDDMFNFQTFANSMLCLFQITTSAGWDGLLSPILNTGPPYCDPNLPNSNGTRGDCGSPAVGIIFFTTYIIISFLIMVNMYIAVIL

Row | SMILES | pIC50
1 | COc1c([C@H]2[C@H](C(=O)Nc3nccc(C(=O)N4CCNCC4)n3)O[C@@](C)(C(F)(F)F)[C@H]2C)ccc(F)c1F [Compound 20, (2R,3S,4S,5R)-3-(3,4-difluoro-2-methoxyphenyl)-4,5-dimethyl-N-(4-(piperazine-1-carbonyl)pyrimidin-2-yl)-5-(trifluoromethyl)tetrahydrofuran-2-carboxamide] | 7.00 to 8.00
2 | C[C@@H](O)COc1c([C@H]2[C@H](C(=O)Nc3ccnc(C(N)=O)c3)O[C@@](C)(C(F)(F)F)[C@H]2C)ccc(F)c1F [Compound 152, 4-((2R,3S,4S,5R)-3-(3,4-difluoro-2-((R)-2-hydroxypropoxy)phenyl)-4,5-dimethyl-5-(trifluoromethyl)tetrahydrofuran-2-carboxamido) picolinamide] | 7.00 to 8.00
3 | COc1c([C@H]2[C@H](C(=O)Nc3ccnc(C(=O)N4CC5(CCCN5)C4)c3)O[C@@](C)(C(F)(F)F)[C@H]2C)ccc(F)c1F [Compound 230, (2R,3S,4S,5R)-N-(2-(2,5-diazaspiro[3.4]octane-2-carbonyl)pyridin-4-yl)-3-(3,4-difluoro-2-methoxyphenyl)-4,5-dimethyl-5-(trifluoromethyl)tetrahydrofuran-2-carboxamide] | > 8.00
4 | C[C@H]1[C@@H](c2ccc(F)c(F)c2COC2COC2)[C@H](C(=O)Nc2ccnc(C(N)=O)c2)O[C@@]1(C)C(F)(F)F [Compound 211, 4-((2R,3S,4S,5R)-3-(3,4-difluoro-2-((oxetan-3-yloxy)methyl)phenyl)-4,5-dimethyl-5-(trifluoromethyl)tetrahydrofuran-2-carboxamido) picolinamide] | > 8.00
5 | COc1c([C@H]2[C@H](C(=O)Nc3ccnc(C(=O)NC[C@H]4CCCCN4)c3)O[C@@](C)(C(F)(F)F)[C@H]2C)ccc(F)c1F [Compound 251, 4-((2R,3S,4S,5R)-3-(3,4-difluoro-2-methoxyphenyl)-4,5-dimethyl-5-(trifluoromethyl)tetrahydrofuran-2-carboxamido)-N-(((R)-piperidin-2-yl)methyl)picolinamide] | 7.00 to 8.00
6 | COc1c(C2C(C(=O)Nc3ccnc(C(=O)N4CCC(N(C)C)C4)c3)OC(C)(C(F)(F)F)C2C)ccc(F)c1F (single isomer, unassigned) [Compound 265, rel-(2R*,3S,*4S*,5R*)-3-(3,4-difluoro-2-methoxyphenyl)-N-(2-(3-(dimethylamino)pyrrolidine-1-carbonyl)pyridin-4-yl)-4,5-dimethyl-5-(trifluoromethyl)tetrahydrofuran-2-carboxamide] | > 8.00
7 | COCCOc1c([C@@H]2[C@@H](C(=O)Nc3ccnc(C(N)=O)c3)O[C@](C)(C(F)(F)F)[C@@H]2C)ccc(F)c1F (stereo in doubt) [Compound 1, rel-4-((2S,3R,4R,5S)-3-(3,4-difluoro-2-(2-methoxyethoxy)phenyl)-4,5-dimethyl-5-(trifluoromethyl)tetrahydrofuran-2-carboxamido) picolinamide] | 6.00 to 7.00
8 | COc1c([C@H]2[C@H](C(=O)Nc3cc(C(N)=O)ncc3[Si](C)(C)C)O[C@@](C)(C(F)(F)F)[C@H]2C)ccc(F)c1F [Compound 23, 4-((2R,3S,4S,5R)-3-(3,4-difluoro-2-methoxyphenyl)-4,5-dimethyl-5-(trifluoromethyl)tetrahydrofuran-2-carboxamido)-5-(trimethylsilyl)picolinamide] | 6.00 to 7.00
9 | CCO[C@H]1CN(C)C[C@@H]1NC(=O)c1cc(NC(=O)[C@@H]2O[C@@](C)(C(F)(F)F)[C@@H](C)[C@H]2c2ccc(F)c(F)c2OC)ccn1 [Compound 291, 4-((2R,3S,4S,5R)-3-(3,4-difluoro-2-methoxyphenyl)-4,5-dimethyl-5-(trifluoromethyl)tetrahydrofuran-2-carboxamido)-N-((3S,4S)-4-ethoxy-1-methylpyrrolidin-3-yl)picolinamide] | 6.00 to 7.00
10 | COc1c([C@H]2[C@H](C(=O)Nc3ccnc(C(=O)N4CC5CC(C4)N5)c3)O[C@@](C)(C(F)(F)F)[C@H]2C)ccc(F)c1F [Compound 239, (2R,3S,4S,5R)-N-(2-(3,6-diazabicyclo[3.1.1]heptane-3-carbonyl)pyridin-4-yl)-3-(3,4-difluoro-2-methoxyphenyl)-4,5-dimethyl-5-(trifluoromethyl)tetrahydrofuran-2-carboxamide] | > 8.00
11 | CN[C@H]1CN(C(=O)c2cc(NC(=O)[C@@H]3O[C@@](C)(C(F)(F)F)[C@@H](C)[C@H]3c3ccc(F)c(F)c3OC)ccn2)C[C@H]1F [Compound 292, (2R,3S,4S,5R)-3-(3,4-difluoro-2-methoxyphenyl)-N-(2-((3R,4S)-3-fluoro-4-(methylamino)pyrrolidine-1-carbonyl)pyridin-4-yl)-4,5-dimethyl-5-(trifluoromethyl)tetrahydrofuran-2-carboxamide] | > 8.00
12 | COc1c(Cl)cc([C@H]2[C@H](C(=O)Nc3ccnc(C(N)=O)c3)O[C@@](C)(C(F)(F)F)[C@H]2C)c(OC)c1F [Compound 154, 4-((2R,3S,4S,5R)-3-(5-chloro-3-fluoro-2,4-dimethoxyphenyl)-4,5-dimethyl-5-(trifluoromethyl)tetrahydrofuran-2-carboxamido) picolinamide] | > 8.00
13 | CCO[C@H]1CNC[C@@H]1NC(=O)c1cc(NC(=O)[C@@H]2O[C@@](C)(C(F)(F)F)[C@@H](C)[C@H]2c2ccc(F)c(F)c2OC)ccn1 [Compound 253, 4-((2R,3S,4S,5R)-3-(3,4-difluoro-2-methoxyphenyl)-4,5-dimethyl-5-(trifluoromethyl)tetrahydrofuran-2-carboxamido)-N-((3S,4S)-4-ethoxypyrrolidin-3-yl)picolinamide] | 7.00 to 8.00
14 | COc1c([C@H]2[C@H](C(=O)Nc3ccnc(C(=O)N4CC5(CCN5C)C4)c3)O[C@@](C)(C(F)(F)F)[C@H]2C)ccc(F)c1F [Compound 216, (2R,3S,4S,5R)-3-(3,4-difluoro-2-methoxyphenyl)-4,5-dimethyl-N-(2-(1-methyl-1,6-diazaspiro[3.3]heptane-6-carbonyl)pyridin-4-yl)-5-(trifluoromethyl)tetrahydrofuran-2-carboxamide] | > 8.00
15 | COCCOc1c([C@@H]2C[C@](C)(C(F)(F)F)O[C@H]2C(=O)Nc2ccnc(C(N)=O)c2)ccc(F)c1F (relative stereo) [Compound 34, rel-4-((2R,3S,5R)-3-(3,4-difluoro-2-(2-methoxyethoxy)phenyl)-5-methyl-5-(trifluoromethyl)tetrahydrofuran-2-carboxamido)picolinamide] | > 8.00
16 | C[C@H]1[C@@H](c2ccc(F)c(F)c2OCCCC#N)[C@H](C(=O)Nc2ccnc(C(N)=O)c2)O[C@@]1(C)C(F)(F)F [Compound 76, 4-((2R,3S,4S,5R)-3-(2-(3-cyanopropoxy)-3,4-difluorophenyl)-4,5-dimethyl-5-(trifluoromethyl)tetrahydrofuran-2-carboxamido)picolinamide] | > 8.00
17 | C[C@H](CO)COc1c([C@H]2[C@H](C(=O)Nc3ccnc(C(N)=O)c3)O[C@@](C)(C(F)(F)F)[C@H]2C)ccc(F)c1F [Compound 82, 4-((2R,3S,4S,5R)-3-(3,4-difluoro-2-((R)-3-hydroxy-2-methylpropoxy)phenyl)-4,5-dimethyl-5-(trifluoromethyl)tetrahydrofuran-2-carboxamido)picolinamide] | > 8.00
18 | COc1c([C@@H]2[C@@H](C(=O)Nc3ccnc(C(N)=O)c3)O[C@](C)(C(F)(F)F)[C@@H]2C)ccc(F)c1CO (single isomer, unassigned) [Compound 137] | ≤ 6.00
19 | C[C@H]1[C@@H](c2ccc(F)c(F)c2OCCN2CC3(CCOC3)C2)[C@H](C(=O)Nc2ccnc(C(=O)N3CC4(CCOC4)C3)c2)O[C@@]1(C)C(F)(F)F [Compound 123, (2R,3S,4S,5R)-3-(2-(2-(6-oxa-2-azaspiro[3.4]octan-2-yl)ethoxy)-3,4-difluorophenyl)-N-(2-(6-oxa-2-azaspiro[3.4]octane-2-carbonyl)pyridin-4-yl)-4,5-dimethyl-5-(trifluoromethyl)tetrahydrofuran-2-carboxamide] | ≤ 6.00
20 | CNC(=O)c1cc(NC(=O)[C@@H]2O[C@@](C)(C(F)(F)F)[C@@H](C)[C@H]2c2ccc(F)c(F)c2OCCN2CC3(COC3)C2)ccn1 [Compound 136, 4-((2R,3S,4S,5R)-3-(2-(2-(2-oxa-6-azaspiro[3.3]heptan-6-yl)ethoxy)-3,4-difluorophenyl)-4,5-dimethyl-5-(trifluoromethyl)tetrahydrofuran-2-carboxamido)-N-methylpicolinamide] | 7.00 to 8.00
21 | COc1c([C@H]2[C@H](C(=O)Nc3ccnc(C(=O)N[C@H]4C[C@@H](C)CN(C)C4)c3)O[C@@](C)(C(F)(F)F)[C@H]2C)ccc(F)c1F [Compound 290, 4-((2R,3S,4S,5R)-3-(3,4-difluoro-2-methoxyphenyl)-4,5-dimethyl-5-(trifluoromethyl)tetrahydrofuran-2-carboxamido)-N-((3S,5R)-1,5-dimethylpiperidin-3-yl)picolinamide] | 6.00 to 7.00
22 | CC(C)NCCOc1c([C@H]2[C@H](C(=O)Nc3ccnc(C(N)=O)c3)O[C@@](C)(C(F)(F)F)[C@H]2C)ccc(F)c1F [Compound 115, 4-((2R,3S,4S,5R)-3-(3,4-difluoro-2-(2-(isopropylamino)ethoxy)phenyl)-4,5-dimethyl-5-(trifluoromethyl)tetrahydrofuran-2-carboxamido)picolinamide] | 6.00 to 7.00
23 | C[C@H]1[C@@H](c2ccc(F)c(F)c2OCCC2(O)CC2)[C@H](C(=O)Nc2ccnc(C(N)=O)c2)O[C@@]1(C)C(F)(F)F [Compound 156, 4-((2R,3S,4S,5R)-3-(3,4-difluoro-2-(2-(1-hydroxycyclopropyl)ethoxy)phenyl)-4,5-dimethyl-5-(trifluoromethyl)tetrahydrofuran-2-carboxamido)picolinamide] | > 8.00
24 | CON=C(C)COc1c([C@H]2[C@H](C(=O)Nc3ccnc(C(N)=O)c3)O[C@@](C)(C(F)(F)F)[C@H]2C)ccc(F)c1F (single isomer, unassigned) [Compound 194, rel-4-((2R*,3S*,4S*,5R*)-3-(3,4-difluoro-2-(2-(methoxyimino)propoxy)phenyl)-4,5-dimethyl-5-(trifluoromethyl)tetrahydrofuran-2-carboxamido)picolinamide] | > 8.00
